This is an account of results in patent US20240059712A1, “BIFUNCTIONAL COMPOUNDS AND PHARMACEUTICAL USES THEREOF” (priority 2022, published 2024).

The test system of one assay is Aspc-1 cells. In words: Cell proliferation study (Cell Titer Glo, 72 hours). The class given is cell-based. The settings on record: Homo sapiens, ASPC1, read-out: IC50, inhibitory effect on cellular proliferation. The method, then: Aspc-1 (Cobioer, CBP60546) cells were grown in RPMI 1640 (Gibco, 61870127) supplemented with 10% fetal bovine serum (Gibco, 10099141), 1% penicillin-streptomycin (Gibco, 15070-063). Aspc-1 cells in exponential growth phase were seeded into 96-well plate (Corning, 3599) at density of 4×10^3/well. Cells were cultured overnight at 37° C. with 5% CO2. On the next day, cells were treated with compound at various concentrations for 72 hours in 37° C., 5% CO2 incubator (final DMSO concentration is 0.1%). After treatment, the cell plates were added 100 μL Cell Tier Glo (Promega, G7573) to every well and incubated at RT for 10 minutes. Cell growth status was measured with Cell Tier Glo (Promega, G7573) following manufacturer's directions. The inhibition curve was obtained with GraphPad 7.0 software using four-parameter equation.
A general note: ATP-based viability assays read luminescence as a measure of living cells.

A further assay deals with T1, KRAS^G12D protein (Homo sapiens, UniProt P01116, G12D).
T1 construct: host or cells: Aspc-1 (AsPC-1) cells
T1 sequence (P01116 1-188 isoform P01116-2 G12D): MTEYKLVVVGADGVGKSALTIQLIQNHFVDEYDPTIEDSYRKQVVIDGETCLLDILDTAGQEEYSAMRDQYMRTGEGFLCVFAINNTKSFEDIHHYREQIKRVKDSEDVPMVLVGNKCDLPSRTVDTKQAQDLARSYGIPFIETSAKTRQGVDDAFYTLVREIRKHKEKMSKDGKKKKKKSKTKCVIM
In words: Protein degradation study (western blot) in Aspc-1 cells. The assay is classed as cell-based. The note with it: for inhibition at 0.005 µM / inhibition at 0.05 µM: ASPC1, 24 h, 24 hours, read-out: Rate of degradation; for inhibition at 0.005 µM: Aspc-1 cells treated with 0.005 μM compound; for inhibition at 0.05 µM: Aspc-1 cells treated with 50 nM compound; for DC50: Aspc-1 cells, half-maximum degradation concentration, read-out: DC50 of compounds induced Ras G12D protein degradation. The method, then:
Aspc-1 (Cobioer, CBP60546) cells in exponential growth phase were inoculated on a 6-well cell culture plate (Corning, 3516) at density of 1E6/well; and cells in the plate were cultured in 37° C. incubator containing 5%-carbon dioxide. The next day, testing compounds were dissolved in DMSO (Sigma, RNBF5902) for the preparation of a 10-mM concentration stock solution. The stock solution was diluted with complete medium (RPMI-1640 supplemented with 10% fetal bovine serum, 1% penicillin-streptomycin), yielding working solutions of various concentrations. The plate, after the addition of compounds, was placed in a 5% carbon dioxide incubator, and incubated at 37° C. for 24 hours (final DMSO concentration was 0.1%). The plate was then removed from the incubator, and the cells were washed twice with precooled PBS (Gibco, 14190250), followed by addition of 80-μL RIPA lysis buffer (containing protease inhibitor (Invitrogen™, AM2696)) to each well. The adherent cells were scraped off with a cell scraper, and the cell lysate was transferred to a 1.5-mL centrifuge tube followed with a 30-minute incubation on ice. The lysate was then clarified with centrifugation at 14000 rpm for 10 min at 4° C. The supernatant was transferred into a new 1.5-mL centrifuge tube, and protein concentration was measured with BCA protein detection kit (Thermo Fisher, 23225). G12D protein level was assessed by western blot.
A mixture of cell lysate (40 μL) and loading buffer (10 μL, 5×SDS (Beyotime, P0015L)) was denatured in a water-bath at 95° C. for 10 min. The denatured protein sample, at 30 μL/well, was loaded into corresponding well of 4-20% Bis-Tris gel (Kingsley, M00656). Protein samples were initially electrophoresed at 80 V for 30 minutes, followed by 120 V for 40 minutes, until the bromophenol blue strip ran to an appropriate position. After electrophoresis, iBlot2 (Life Technologies, IB21001) was used to transfer the separated samples onto PVDF film. The PVDF membrane was washed with double-distilled water and then blocked in TBST (Thermo Scientific, 28360) buffer containing 5% non-fat milk, for 2 hours. Blocked membrane was rinsed with tris-buffered saline tween-20 (Thermo Scientific, 28360, TBST) three times, 10 minutes each. Membrane was then incubated with 1:1000 diluted KRAS primary antibody (CST, cat #14429S) overnight at 4° C. Membrane was rinsed in a way described previously followed by 1 hour incubation of secondary antibody at room temperature. After washing the film for three times with TBST, ECL color developing solution was applied, and image was captured with Biorad Chemi Doc gel imager. The band gray value was quantified (Image Lab), and protein degradation level was calculated according to the following formula:
Level of RAS protein expression=(RAS-compound/GAPDH)/(RAS-DMSO/GAPDH)
Level of degradation (%)=(1−Rate of RAS protein expression)×100
Symbols of −, +, ++, +++ indicate that the degradation level of Ras protein induced by testing compounds are […], 11 to 30%, 31 to 60% and greater than 60%, respectively.
Half-maximum degradation concentrations (DC50s) of testing compounds were calculated using GraphPad Prism and their values were shown in Table 6. Symbols of […] represent DC50s equal or less than 10 nM, 11-50 nM, 51-100 nM, and 101-200 nM, respectively.

Structures are written as SMILES. Bounds are passed on as bounds.

In the case of `C#Cc1c(F)ccc2cc(O)cc(-c3ncc4c(N5CC6CCC(C5)N6)nc(OCC5(CN6CCC7(CC6)CC(N6CCC(c8ccc9c(N%10CCC(=O)NC%10=O)nn(C)c9c8)CC6)C7)CC5)nc4c3F)c12` [Compound 1a], in the assay on Aspc-1 cells, the IC50 is less than 100 nM. In addition, at KRAS^G12D protein, the inhibition at 0.005 µM is greater than 60%, the inhibition at 0.05 µM was greater than 60% and the DC50 is less than 10 nM.
As for `Nc1cc(Cl)c(C(F)(F)F)c(-c2ncc3c(N4CC5CCC(C4)N5)nc(OCC4(CN5CCC6(CC5)CC(N5CCC(c7ccc(NC8CCC(=O)NC8=O)cc7F)CC5)C6)CC4)nc3c2F)c1` (centres unmarked) [Compound 21a], the IC50 in the assay with Aspc-1 cells is less than 100 nM. At KRAS^G12D protein, the inhibition at 0.005 µM fell in the range of 31 to 60%, the inhibition at 0.05 µM is greater than 60% and the DC50 is less than 10 nM.

The DC50 is the midpoint of the concentration-degradation curve.
